Laboratory results as given in patent US12043670B2, “Anti-BCMA antibody-drug conjugates and methods of use” (Eisai R&D Management Co., Ltd., priority 2020, dated 2024).
pIC50: −log10 of the molar value.

Molecular target: T1, SF3b complex (Homo sapiens, UniProt O75533+Q7RTV0)
T1 construct: endogenous in cells; host or cells: nuclear extracts
Test: SF3B1 binding / scintillation proximity assay (SPA)
Settings: competition with 2.5 nM [3H]-pladienolide B probe
Procedure: A scintillation proximity assay was performed to measure the binding affinity of compounds (“payloads”) to the SF3b complex. Batch immobilization of anti-SF3B1 antibody (MBL) to anti-mouse PVT SPA scintillation beads (PerkinElmer) was prepared. For every 2.5 mg of nuclear extracts, 5 μg of anti-SF3B1 antibody and 1.5 mg of beads were mixed in 150 μL PBS. The antibody-bead mixture was incubated for 30 min at room temperature (RT) and centrifuged at 18,000 g for 5 min. 150 μL PBS was used to resuspend every 1.5 mg antibody-bead mixture. The beads were suspended and added to the prepared nuclear extracts. The slurry was incubated for 2 hours at 4° C. with gentle mixing. The beads were then collected by centrifuging at 18,000 g for 5 min, and washed twice with PBS+0.1% Triton X-100. After a final centrifugation step, every 1.5 mg of beads was suspended with 150 μL of PBS. SF3b complexes were tested for [^3H]-labeled pladienolide B probe binding ([^3H]-PB), synthesized as previously described (Kotake et al. (2007) Nat Chem Biol. 3(9):570-5). 100 μL binding reactions were prepared with 50 μL bead slurry and by adding varying concentrations of PB or PB-OH, and after 30 min pre-incubation, 2.5 nM of [^3H]-PB was added. The mixture was incubated for 30 min, and luminescence signals were read using a MicroBeta2 Plate Counter (PerkinElmer). […]

SMILES: CC[C@H](O)[C@@H](C)[C@H]1O[C@@H]1C[C@@](C)(O)/C=C/C=C(\C)[C@H]1OC(=O)C[C@H](O)CC[C@@](C)(O)[C@@H](OC(=O)N2CCNCC2)/C=C/[C@@H]1C [D1, (2S,3S,6S,7R,10R,E)-7,10-dihydroxy-2-((R,2E,4E)-6-hydroxy-7-((2R,3R)-3-((2R,3S)-3-hydroxypentan-2-yl)oxiran-2-yl)-6-methylhepta-2,4-dien-2-yl)-3,7-dimethyl-12-oxooxacyclododec-4-en-6-yl piperazine-1-carboxylate]
- pIC50: 7.67
